# Source: US20060138687A1, “Method of forming particles” (Ferro Corporation, priority 2003, published 2006)
# Test: Scanning Electron Microscopy (SEM) analysis of collected particles
# Format: physicochemical
# Settings: SEM micrograph; particles made by third embodiment (droplets frozen on contact with CO2/ethanol/water extracting fluid at −23° C., solid-liquid extraction)
# Experimental: The collected particles were analyzed using Scanning Electron Microscopy (SEM). From FIG. 11 it is clear that the GF particles are in the form of non-agglomerated crystals, having an orthorhombic shape. The mean size of the substantially uniform particles is around 5-10 μm.
# Analysis of the porous lactose particles was carried out in the same manner as described in Example 1. FIG. 12 is an SEM micrograph of the lactose particles. […] If desired, these lactose nanocrystals can be obtained simply by crumbling the large porous lactose spheres.
row,Structure (SMILES),mean size of the particles
1,"COC1=CC(=O)C[C@@H](C)[C@]12Oc1c(Cl)c(OC)cc(OC)c1C2=O [GF, Griseofulvin]",5-10 μm
2,"OC[C@H]1O[C@@H](O[C@H]2[C@H](O)[C@@H](O)C(O)O[C@@H]2CO)[C@H](O)[C@@H](O)[C@H]1O (some centres unmarked) [lactose, Lactose]",20-30 μm
